Data reported in ChEMBL document CHEMBL1201862, “PubChem BioAssay data set” (2004).
Active and inactive are the calls of the source.

Tests used:
[1] = biological target: T1, Corticotropin-releasing factor receptor 2/Corticotropin-releasing factor-binding protein (Homo sapiens, UniProt P24387+Q13324); test: Dose Response confirmation of uHTS hits for small molecule antagonists of the CRF-binding protein and CRF-R2 receptor complex.; type: functional; settings: read-out: IC50_Mean
T1 sequence (Q13324 whole entry): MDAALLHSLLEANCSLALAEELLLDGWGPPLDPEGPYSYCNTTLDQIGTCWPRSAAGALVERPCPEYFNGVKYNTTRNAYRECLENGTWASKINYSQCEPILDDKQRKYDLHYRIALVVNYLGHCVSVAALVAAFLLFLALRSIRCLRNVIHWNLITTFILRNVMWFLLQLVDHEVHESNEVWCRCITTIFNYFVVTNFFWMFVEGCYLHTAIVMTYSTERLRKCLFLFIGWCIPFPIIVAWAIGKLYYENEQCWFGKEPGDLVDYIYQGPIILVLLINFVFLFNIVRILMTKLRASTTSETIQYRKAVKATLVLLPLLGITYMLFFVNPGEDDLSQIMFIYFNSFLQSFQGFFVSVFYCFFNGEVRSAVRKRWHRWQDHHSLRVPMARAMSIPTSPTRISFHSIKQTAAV
T1 sequence (P24387 whole entry): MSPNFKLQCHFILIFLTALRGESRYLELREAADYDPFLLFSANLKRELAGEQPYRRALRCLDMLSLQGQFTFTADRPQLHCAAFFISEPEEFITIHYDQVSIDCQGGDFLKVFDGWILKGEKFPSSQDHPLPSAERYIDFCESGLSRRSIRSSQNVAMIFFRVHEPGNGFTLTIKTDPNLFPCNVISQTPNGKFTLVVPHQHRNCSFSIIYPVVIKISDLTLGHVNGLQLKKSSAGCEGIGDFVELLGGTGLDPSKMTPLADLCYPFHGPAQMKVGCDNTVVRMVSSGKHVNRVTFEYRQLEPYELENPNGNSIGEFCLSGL

[2] = biological target: T1, Corticotropin-releasing factor receptor 2/Corticotropin-releasing factor-binding protein; test: activators of CRF receptor 2 with binding protein – uHTS hits, confirmation (AID 602473); type: functional; settings: read-out: EC50_Mean
[3] = biological target: T2, Short transient receptor potential channel 4 (Mus musculus, UniProt Q9QUQ5); test: mouse TRPC4 channel inhibitors, dose response, cell-based, HEK293 TRPC4/mu-opioid, Fluo-4 calcium (AID 434942); type: functional;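 also: potency of inhibitors blocking the TRPC4 calcium response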
T2 sequence (Q9QUQ5 whole entry): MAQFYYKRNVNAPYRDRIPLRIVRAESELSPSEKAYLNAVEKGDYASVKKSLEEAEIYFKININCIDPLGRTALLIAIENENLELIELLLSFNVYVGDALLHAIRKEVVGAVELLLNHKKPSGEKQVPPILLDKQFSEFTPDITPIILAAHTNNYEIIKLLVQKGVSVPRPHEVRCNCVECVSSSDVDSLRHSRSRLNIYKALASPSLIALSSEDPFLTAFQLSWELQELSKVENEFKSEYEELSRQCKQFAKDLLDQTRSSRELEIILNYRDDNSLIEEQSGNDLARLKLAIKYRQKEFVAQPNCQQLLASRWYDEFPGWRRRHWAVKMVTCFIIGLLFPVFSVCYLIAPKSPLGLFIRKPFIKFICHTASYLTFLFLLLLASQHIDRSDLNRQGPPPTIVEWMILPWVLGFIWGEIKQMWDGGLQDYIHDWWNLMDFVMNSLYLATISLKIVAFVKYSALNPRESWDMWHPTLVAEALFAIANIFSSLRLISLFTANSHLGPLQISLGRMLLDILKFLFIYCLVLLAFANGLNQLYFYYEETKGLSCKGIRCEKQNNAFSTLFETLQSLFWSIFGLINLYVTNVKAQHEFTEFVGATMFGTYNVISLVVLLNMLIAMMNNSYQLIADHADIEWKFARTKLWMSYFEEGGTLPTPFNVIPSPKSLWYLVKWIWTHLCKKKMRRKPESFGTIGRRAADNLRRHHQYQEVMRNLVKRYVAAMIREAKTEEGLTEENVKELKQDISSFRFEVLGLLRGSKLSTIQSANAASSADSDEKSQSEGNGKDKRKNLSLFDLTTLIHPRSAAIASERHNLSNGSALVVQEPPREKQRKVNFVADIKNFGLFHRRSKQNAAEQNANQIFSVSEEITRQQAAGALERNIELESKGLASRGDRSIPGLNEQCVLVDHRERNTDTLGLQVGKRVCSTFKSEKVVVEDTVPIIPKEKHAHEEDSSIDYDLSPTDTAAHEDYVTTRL

[4] = biological target: FAD-linked sulfhydryl oxidase ALR (Homo sapiens, UniProt P55789); test: inhibitors of human ALR sulfhydryl oxidase, dose response, biochemical, H2O2 detection, luminescence, cherry-pick (AID 493248)
[5] = C. albicans growth with fluconazole, confirmation, fluorescence, retest (AID 2467); type: functional, cell-based
[6] = microbe, parasite or virus in culture; type: functional; settings: Mycobacterium tuberculosis
[7] = cytotoxicity toward NIH3T3 fibroblasts, dose response, counter-screen, cell-based, ATP luminescence, mouse fibroblasts (AID 2010); type: functional;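 also: cells exposed to compound for about 90 hours before reading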
cells = type: functional
[8] = inhibitors of intracellular T. cruzi replication, confirmation, NIH3T3 host cells, beta-gal luminescence (AID 2044); type: functional, cell-based;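 also: intracellular parasites grown in NIH/3T3 mouse fibroblasts as host cells; luminescent beta-galactosidase reporter signal from transgenic T. cruzi replicating inside host cells; inhibitors lower the luminescence signal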
[9] = THP-1 cell cytotoxicity, dose response, cytotoxicity control for non-replicating M. tuberculosis project (AID 489025); type: functional
[10] = NIH-3T3 fibroblast cytotoxicity, dose response, cytotoxicity control, cell-based, fluorescence, Alamar Blue, secondary assay (AID 2327); type: functional;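 also: NIH-3T3 mouse fibroblasts cultured with fluconazole at 8 µg/mL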
Streptococcus = test: Group A Streptococcus viability loss, dose response, counter-screen for streptokinase expression inhibitor project, luminescence, BacTiterGlo (AID 1915); type: functional, organism-based;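 also: potency for reduction of bacterial viability or growth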
[11] = Luminescence Cell-Based Dose Retest to Confirm Inhibitors of Cancer Stem Cells. [Related pubchem assays (depositor defined):AID2717, AID2721]; type: functional, Homo sapiens
[12] = biological target: T3, Ubiquitin-conjugating enzyme E2 N (Homo sapiens, UniProt P61088); type: functional;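 also: Dose-response confirmation in a TR-FRET assay detecting UBC13-driven polyubiquitin chain formation, inhibition measured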
T3 sequence (P61088 whole entry): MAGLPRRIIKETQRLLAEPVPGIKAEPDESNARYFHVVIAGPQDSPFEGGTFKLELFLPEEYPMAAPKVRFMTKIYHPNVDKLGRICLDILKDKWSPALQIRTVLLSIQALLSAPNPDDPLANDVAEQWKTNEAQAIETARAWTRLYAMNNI

Streptokinase A = biological target: T4, Streptokinase A (Streptococcus pyogenes serotype M1, UniProt P10520); test: S. pyogenes streptokinase expression inhibitors, potency, dose response, plasminogen activation absorbance, OD405 (AID 1914); type: functional, Streptococcus pyogenes M1 GAS;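 also: secreted streptokinase activity via plasminogen activation per viability signal from cell pellet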
T4 sequence (P10520 whole entry): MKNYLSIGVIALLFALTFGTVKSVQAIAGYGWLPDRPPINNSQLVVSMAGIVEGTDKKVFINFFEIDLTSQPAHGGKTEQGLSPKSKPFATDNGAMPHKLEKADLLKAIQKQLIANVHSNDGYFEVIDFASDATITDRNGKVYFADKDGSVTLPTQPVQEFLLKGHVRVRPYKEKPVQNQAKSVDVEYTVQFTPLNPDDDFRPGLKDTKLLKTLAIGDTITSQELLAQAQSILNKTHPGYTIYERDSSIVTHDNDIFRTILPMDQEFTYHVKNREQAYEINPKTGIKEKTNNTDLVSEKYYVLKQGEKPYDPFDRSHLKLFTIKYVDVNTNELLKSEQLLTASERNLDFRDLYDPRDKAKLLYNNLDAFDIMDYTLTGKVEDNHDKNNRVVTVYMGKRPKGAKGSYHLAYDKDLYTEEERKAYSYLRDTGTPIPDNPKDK

[13] = test system: Streptococcus sp. 'group A'; test: growth inhibition of control SK(-) GAS strain, dose response, counter-screen for streptokinase expression inhibitor project, luminescence, kanamycin, BacTiterGlo, confirmation (AID 1900); type: functional, organism-based
[14] = biological target: T5, Rac GTPase-activating protein 1 (Homo sapiens, UniProt Q9H0H5); test: MgcRacGAP GTPase-activating activity inhibitors, confirmation, biochemical, ADP Hunter fluorescence, primary and confirmatory (AID 624330); type: functional
T5 sequence (Q9H0H5 whole entry): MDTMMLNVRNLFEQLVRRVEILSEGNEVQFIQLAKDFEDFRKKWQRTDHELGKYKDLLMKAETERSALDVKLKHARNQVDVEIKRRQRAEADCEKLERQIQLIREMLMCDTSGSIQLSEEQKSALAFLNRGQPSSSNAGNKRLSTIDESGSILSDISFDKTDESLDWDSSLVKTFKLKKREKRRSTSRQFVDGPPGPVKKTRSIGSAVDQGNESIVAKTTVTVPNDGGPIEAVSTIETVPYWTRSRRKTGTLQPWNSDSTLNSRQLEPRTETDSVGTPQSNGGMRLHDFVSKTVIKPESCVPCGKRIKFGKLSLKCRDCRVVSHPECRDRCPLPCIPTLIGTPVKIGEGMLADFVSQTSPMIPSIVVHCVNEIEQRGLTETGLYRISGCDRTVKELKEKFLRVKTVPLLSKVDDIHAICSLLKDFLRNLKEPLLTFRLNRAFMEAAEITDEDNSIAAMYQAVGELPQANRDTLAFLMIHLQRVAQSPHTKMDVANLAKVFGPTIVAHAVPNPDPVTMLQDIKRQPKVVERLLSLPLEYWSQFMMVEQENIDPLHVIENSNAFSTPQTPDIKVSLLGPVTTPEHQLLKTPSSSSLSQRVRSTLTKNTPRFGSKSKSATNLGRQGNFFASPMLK

[15] = inhibitors of SNCA 5'UTR-driven reporter translation, confirmation, H4 neuroglioma cells, luminescence (AID 1988); type: functional, cell-based
[16] = inhibitors of firefly luciferase expression or activity, dose response, H4 neuroglioma cells, luminescence (AID 1990); type: functional, cell-based
[17] = Luminescence Cell-Based Dose Response HTS to Identify Inhibitors of 5'UTR Stem-Loop Driven Prion Protein mRNA Translation in H4 Neuroglioblastoma Cells. [Related pubchem assays: 1827 (Project Summary), 1813 (Primary HTS)]; type: functional

Sequence of FAD-linked sulfhydryl oxidase ALR (P55789 whole entry): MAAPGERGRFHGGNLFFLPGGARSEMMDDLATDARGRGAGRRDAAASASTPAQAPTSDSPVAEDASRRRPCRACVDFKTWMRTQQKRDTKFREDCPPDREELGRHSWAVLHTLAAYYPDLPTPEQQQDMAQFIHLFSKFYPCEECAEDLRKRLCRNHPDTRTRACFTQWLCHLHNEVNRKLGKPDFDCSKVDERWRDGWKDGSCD

Compound: CCc1nnc(N=C(S)Nc2ccccc2)s1
- IC50 [1]: > 47.1 µM (inactive)
- EC50 [2]: > 53 µM (inactive)

Compound: COc1cc(Cl)c(C)cc1NC(=O)CSc1ccc(C)cc1
- IC50 [1]: > 47.1 µM (inactive)
- EC50 [2]: > 53 µM (inactive)

Compound: CC1CCCN(CCCNC(=O)CN2C(=O)CSc3ccc(S(=O)(=O)N4CCOCC4)cc32)C1 (configuration not stated)
- IC50 [1]: > 47.1 µM (inactive)
- EC50 [2]: > 53 µM (inactive)

Compound: O=S(=O)(c1ccccc1)N1CCN(C/C=C/c2ccccc2)CC1
- EC50 [3]: 5.96 µM (active)

Compound: COc1cc(C(=O)NCC(c2ccco2)N2CCc3ccccc32)cc(OC)c1OC (configuration not stated)
- AC50 [4]: 5.5 µM (active)

Compound: CC(=O)c1ccc(-[n+]2cc(-c3ccc(C(C)(C)C)cc3)n3c2SCCC3)cc1
- EC50 [5]: 2.03 µM (active)
- CC50 [6]: > 40 µM (active)
- EC50 [7]: > 60 µM (not active)
- IC50 (cells): 20.9 µM (active)
- EC50 [8]: 0.443 µM (active)
- CC50 [9]: 11.4 µM (active)
- EC50 [10]: > 150 µM (inactive)

Compound: N#Cc1nc(-c2ccc(OCc3ccccc3)cc2)oc1NCCCn1ccnc1
- CC50 [6]: > 40 µM (active)
- IC50 (cells): 46.5 µM (active)
- CC50 [9]: 24.7 µM (active)

Compound: COc1ccc(CN2CCN(C(=O)c3ccc(F)cc3)CC2)c(OC)c1
- EC50 [3]: 3.76 µM (active)

Compound: CC/C(=C(\c1ccccc1)c1ccc(OCCN(C)C)cc1)c1ccccc1 [TAMOXIFEN]
- EC50 (Streptococcus): 21.8 µM (active)
- AC50 [11]: 5.52 µM (active)
- IC50 [12]: > 20 µM (inactive)
- EC50 (Streptokinase A): > 150 µM (not active)
- EC50 [13]: 6.5 µM (active)

Compound: O=C(Cc1ccccc1)N1CCN(Cc2cccc(Br)c2)CC1
- EC50 [3]: 13.3 µM (active)

Compound: COc1cccc(C(=O)N2CCCC(Nc3ccc(C)c(C)c3)C2)c1 (configuration not stated)
- AC50 [4]: 7.17 µM (active)

Compound: Cc1nc2ccc(-c3nc4cc(N)ccc4[nH]3)cc2[nH]1
- IC50 [14]: 54 µM (active)
- EC50 [15]: 38 µM (active)
- EC50 [16]: > 120 µM (not active)
- AC50 [4]: 0.736 µM (active)
- EC50 [17]: 16.6 µM (active)

Compound: CCOc1c(Cl)cc(CNCC(O)c2ccccc2)cc1OC (configuration not stated)
- EC50 [3]: 2.11 µM (active)

Compound: CC(NC(=O)COC(=O)C1(C)CC1(Cl)Cl)c1ccccc1 (configuration not stated)
- IC50 [1]: > 47.1 µM (inactive)
- EC50 [2]: > 53 µM (inactive)

Compound: C=CCNC(S)=NNC(=O)c1ccc(OCC)cc1
- IC50 [1]: > 47.1 µM (inactive)
- EC50 [2]: > 53 µM (inactive)

Compound: Cc1cc(-c2c(C)[nH]n(-c3ccccc3)c2=O)[nH]n1
- CC50 [6]: 33 µM (active)
- IC50 (cells): 5.35 µM (active)
- AC50 [4]: 5.41 µM (active)
- CC50 [9]: > 40 µM (active)

Compound: NNC(=O)CCc1nc2ccc(O)cc2[nH]1
- AC50 [4]: 3.82 µM (active)

Compound: CC12CCC(C(=O)N/N=C/c3ccc(O)cc3)(OC1=O)C2(C)C (configuration not stated)
- AC50 [4]: 0.099 µM (active)

Compound: Oc1cnnc(Nc2ccc(Nc3ccccc3)cc2)n1
- AC50 [4]: 0.323 µM (active)

Compound: Cc1ccc(-n2c(Cl)c(Cl)[nH]c(=O)c2=O)cc1
- IC50 [1]: > 47.1 µM (inactive)
- EC50 [2]: > 53 µM (inactive)

Compound: CN(C)c1ccc(C(=S)N2CCNCC2)cc1
- AC50 [4]: 2.18 µM (active)

Compound: CC(C)(C)Nc1nc(NC(C)(C)C)nc(-n2ccnc2)n1
- IC50 (cells): 22.9 µM (active)
- CC50 [9]: > 40 µM (active)

Compound: O=C(C[n+]1nc(CNc2ccc(Br)cc2)n2c1CCCCC2)c1ccc([N+](=O)[O-])cc1
- IC50 [12]: > 20 µM (inactive)

Compound: Cc1cccc(-n2nc(C)c3c(C(=O)O)cc(-c4cccs4)nc32)c1
- EC50 [3]: 2.99 µM (active)

Compound: Cc1ccc2c(c1)N(C(=O)CCC(=O)Nc1ccccc1Cl)CC(C)O2 (configuration not stated)
- EC50 [3]: 1.5 µM (active)

Compound: C#CCOCCOCCOCCNc1nc(N2CCN(C(=O)[C@H]([C@@H](C)CC)n3cc(CCCN=C(N)N)nn3)CC2)nc(N2CCN(C(=O)[C@H](CCCCN)n3cc(CCCC)nn3)CC2)n1
- IC50 [12]: > 20 µM (inactive)
